# Assay results taken from patent US6608070B1, “2,3-substituted indole compounds as anti-inflammatory and analgesic agents” (priority 1999, dated 2003).
# Where a name gives a salt, the structure may show the parent alone.
row,Structure (SMILES),melting point
1,"Cc1ccnc(C(=O)c2[nH]c3ccc(Cl)cc3c2CC(=O)NCCN)c1 [Example 272, [5-Chloro-2-(4-methylpyridine-2-carbonyl)-1H-indol-3-yl]-N-(2-aminoethyl)acetamide]",165.7 °C
2,"COc1ccnc(C(=O)c2[nH]c3cc(Cl)ccc3c2CC(=O)O)c1 [Example 106, [6-Chloro-2-(4-methoxypyridine-2-carbonyl)-1H-indol-3-yl]acetic Acid]",213 °C (dec.)
3,"O=C(O)Cc1c(C(=O)c2cc(CO)ccn2)[nH]c2cc(Cl)ccc12 [Example 96, [6-Chloro-2-[4-(hydroxymethyl)pyridine-2-carbonyl]-1H-indol-3-yl]acetic Acid]",210 to 212 °C
4,"Cc1ccc(C(=O)c2[nH]c3cc(Cl)ccc3c2CC(=O)O)nc1 [Example 32, [6-Chloro-2-(5-methylpyridine-2-carbonyl)-1H-indol-3-yl]acetic Acid]",235 to 238 °C
5,"CCc1ccnc(C(=O)c2[nH]c3ccc(Cl)cc3c2CC(=O)O)c1F [Example 112, [5-Chloro-2-(4-ethyl-3-fluoropyridine-2-carbonyl)-1H-indol-3-yl]acetic Acid]",208 °C
6,"O=C(O)Cc1c(C(=O)c2ccc(Cl)cn2)[nH]c2ccc(Cl)cc12 [Example 86, [5-Chloro-2-(5-chloropyridine-2-carbonyl)-1H-indol-3-yl]acetic Acid]",259 to 260 °C
7,"Cc1cccc(C(=O)c2[nH]c3ccc(Cl)cc3c2CC(=O)O)n1 [Example 38, [5-Chloro-2-(6-methylpyridine-2-carbonyl)-1H-indol-3-yl]acetic Acid]",225 to 226 °C
8,"Cc1cnc(C(=O)c2[nH]c3cc(Cl)ccc3c2CC(=O)O)c(C)c1 [Example 110, [6-Chloro-2-(3,5-dimethylpyridine-2-carbonyl)-1H-indol-3-yl]acetic Acid]",199 to 200 °C
9,"O=C(O)Cc1c(C(=O)c2ccc(Cl)c(F)c2)[nH]c2cc(Cl)ccc12 [Example 204, [6-Chloro-2-(4-chloro-3-fluorobenzoyl)-1H-indol-3-yl]acetic Acid]",179 to 182 °C
10,"CCOC(=O)C=Cc1ccc(Cl)cc1NS(=O)(=O)c1ccc(C)cc1 [Example 293, 3-[4-Chloro-2-(toluene-4-sulfonylamino)-phenyl]-acrylic Acid Ethyl Ester]",124 to 127 °C
11,"CC(C)(C)c1ccnc(C(=O)c2[nH]c3cc(Cl)ccc3c2CC(=O)O)c1 [Example 70, [2-(4-tert-Butylpyridine-2-carbonyl)-6-chloro-1H-indol-3-yl]acetic Acid]",203 to 205 °C
12,"O=C(O)Cc1c(C(=O)c2cc3ccccc3cn2)[nH]c2ccc(Cl)cc12 [Example 221, [5-Chloro-2-(isoquinoline-3-carbonyl)-1H-indol-3-yl]acetic Acid]",239 to 240 °C
13,"Cc1cnc(C(=O)c2[nH]c3cc(Cl)ccc3c2CC(=O)O)cc1C [Example 104, [6-Chloro-2-(4,5-dimethylpyridine-2-carbonyl)-1 H-indol-3-yl]acetic Acid]",226 to 228 °C
14,"Cc1cnc(C(=O)c2[nH]c3cc(Cl)ccc3c2CC(=O)O)s1 [Example 235, [6Chloro-2-(5-methylthiazole-2-carbonyl)-1H-indol-3-yl]acetic Acid]",225 to 226 °C
15,"O=C(O)Cc1c(C(=O)c2cc(CO)ccn2)[nH]c2ccc(Cl)cc12 [Example 98, [5-Chloro-2-[4-(hydroxymethyl)pyridine-2-carbonyl]-1H-indol-3-yl]acetic Acid]",218 to 219 °C
16,"Cc1ccnc(C(=O)c2[nH]c3ccc(Cl)cc3c2CC(=O)O)c1C [Example 100, [5-Chloro-2-(3,4-dimethylpyridine-2-carbonyl)-1H-indol-3-yl]acetic Acid]",236 to 237 °C
17,"O=C(O)Cc1c(C(=O)c2ccncc2)[nH]c2cc(Cl)ccc12 [Example 94, [6-Chloro-2-(pyridine-4-carbonyl)-1H-indol-3-yl]acetic Acid]",256 to 257 °C
18,"Cc1cccc(C(=O)c2[nH]c3cc(Cl)ccc3c2CC(=O)O)n1 [Example 78, [6-Chloro-2-(6-methylpyridine-2-carbonyl)-1H-indol-3-yl]acetic Acid]",230 to 231 °C
19,"CCc1ccnc(C(=O)c2[nH]c3ccc(Cl)cc3c2CC(=O)O)c1 [Example 60, [5-Chloro-2-(4-ethylpyridine-2-carbonyl)-1H-indol-3-yl]acetic Acid]",217 to 218 °C
20,"O=C(O)Cc1c(C(=O)c2ccc(Cl)cc2)[nH]c2cc(Cl)ccc12 (as salt: malonate) [Example 9, [6-Chloro-2-(4-chlorobenzoyl)-1H-indol-3-yl]acetic Acid]",189 to 190 °C
21,"Cc1ccnc(C(=O)c2[nH]c3ccc(Cl)cc3c2CC(=O)NCCO)c1 [Example 269, [5-Chloro-2-(4-methylpyridine-2-carbonyl)-1H-indol-3-yl]-N-(2-hydroxyethyl)acetamide]",195.9 °C
22,"Cc1ccnc(C(=O)c2[nH]c3ccc(Cl)cc3c2CC(=O)O)c1 [Example 36, [5-Chloro-2-(4-methylpyridine-2-carbonyl)-1H-indol-3-yl]acetic Acid]",230 to 231 °C
23,"Cc1ccc(C(=O)c2[nH]c3ccc(Cl)cc3c2CC(=O)O)nc1 [Example 80, [5-Chloro-2-(5-methylpyridine-2-carbonyl)-1H-indol-3-yl]acetic Acid]",247 to 248 °C
24,"CC(C)c1ccnc(C(=O)c2[nH]c3ccc(Cl)cc3c2CC(=O)O)c1 [Example 64, [5-Chloro-2-(4-isopropylpyridine-2-carbonyl)-1H-indol-3-yl]acetic Acid]",227 to 228 °C
25,"CCOC(=O)Cc1c(C(=O)c2ccc(Cl)cc2)[nH]c2cc(Cl)ccc12 [Example 297, [6-Chloro-2-(4-chloro-benzoyl)-1H-indol-3-yl]-acetic Acid Ethyl Ester]",186 to 188 °C
26,"Cc1nnsc1C(=O)c1[nH]c2cc(Cl)ccc2c1CC(=O)O [Example 231, [6-Chloro-2-(4-methyl-1,2,3-thiadiazole-5-carbonyl)-1H-indol-3-yl]acetic Acid]",215 to 216 °C
27,"O=C(O)Cc1c(C(=O)c2ccc(Cl)cc2)[nH]c2cc(Cl)ccc12 [Example 9, [6-Chloro-2-(4-chlorobenzoyl)-1H-indol-3-yl]acetic Acid]",181 to 183 °C
28,"Cc1cc(C(=O)c2[nH]c3cc(Cl)ccc3c2CC(=O)O)no1 [Example 227, [6-Chloro-2-(5-methylisoxazole-3-carbonyl)-1H-indol-3-yl]acetic Acid]",227 to 229 °C
29,"Cc1cccnc1C(=O)c1[nH]c2cc(Cl)ccc2c1CC(=O)O [Example 74, [6-Chloro-2-(3-methylpyridine-2-carbonyl)-1H-indol-3-yl]acetic Acid]",195 to 196 °C
